Experimental findings from patent publication US10111854B2, “Synthesis and use of amine-containing flavonoids as potent anti-leishmanial agents” (The Hong Kong Polytechnic University, priority 2014, dated 2018) are described below.

Where only a bound is given, the exact number is not on record here.

Data set [1] has as its system L. amazonensis LV78 promastigotes. The data set is described as follows: Anti-promastigote activity (MTS assay), L. amazonensis LV78. To be noted: Leishmania amazonensis, 72 hours. Type of data set: cell-based. As to the method:
(§1) Promastigotes of visceral L. donovani Ld39 and LdHU3, and cutaneous L. amazonensis LV78, L. braziliensis UA847 and L. major FV1 were employed in the study. All strains were cultured in Schneider's Drosophila Medium (Invitrogen), pH 6.9 supplemented with 10% (v/v) heat inactivated fetal bovine serum (Hyclone) with 4 mM glutamine (Sigma) and 25 μg/mL gentamicin solution (Invitrogen) at 27° C. for 4 days. RAW264.7 cells were cultured in supplemented DMEM media with 10% heat inactivated FBS and 100 U/mL penicillin and 100 μg/mL of streptomycin. They were maintained at 37° C. in a humidified atmosphere with 5% CO2. The cells were split constantly after a confluent monolayer has been formed. The cells were harvested by a cell scraper.
(§2) Anti-promastigote activity was determined according to previous procedures (1) by Cell Titer 96® Aqueous Assay (Promega) that employed a tetrazolium compound. Promastigotes were seeded into 96-well flat bottom microtiter plate at 1×10^5 cells per well in a final volume of 100 μL medium and incubated with a series of concentrations of synthetic FM. Parasites were incubated at 27° C. for 72 hours. After 72 hours of incubation, 10 μL of MTS:PMS mixture [MTS:2-(4,5-Dimethylthiazol-2-yl-)-5-[3-(carboxymethoxy)phenyl]-2-(4-sulfophenyl)-2H-tetrazolium); PMS: phenazine methosulfate both purchased from Sigma] was added into each well of microtiter plate. The plate was then incubated at 27° C. for 4 hours for color development. After 4 hours of incubation, the OD values were determined at 490 nm using automatic microtiter plate reader (Bio-Rad).
(§3) IC50 values of known antileishmanials and the amine-containing flavonoid monomers of the present invention to promastigotes (L. amazonensis LV78, L major FV1, L. donovani HU3, L. donovani 39), macrophages (Raw 264.7 and PEM) and mouse fibroblast (L929) were determined. The anti-promastigotes activities and cytotoxicity of the amine-containing flavonoid monomers of the invention are shown in Table 1.

Data set [2] concerns L. donovani HU3 amastigotes. Briefly: Anti-amastigote activity in infected PEM, L. donovani HU3. Type of data set: cell-based. To be noted: Leishmania donovani, 72 h; infected PEM, 3 days, Giemsa; SSG-sensitive. As to the method:
(§4) Mouse peritoneal elicited macrophages (PEM) were obtained as previously described (2). A round cover slip (12 mm in diameter) was placed into each well of 24-well culture plate. Mouse PEM were resuspended in supplemented DMEM media containing 10% heat inactivated FBS (v/v), 100 U/mL penicillin and 100 μg/mL streptomycin and seeded into each well at a cell density of 1×10^5 cells per 500 μL. Macrophages were allowed to attach overnight. Non-adherent cells were removed by gentle washing with un-supplemented DMEM media twice. Adherent macrophages were infected with late-log promastigotes at a parasite-to-macrophage ratio of 20:1 overnight at 37° C. with 5% CO2. Non-internalized promastigotes were removed by washing twice with un-supplemented DMEM media. Infected macrophages were further incubated in 500 μL of supplemented DMEM media in the presence or absence of FM for 72 hours at 37° C. After incubation, cover slips were stained with Giemsa and the percentage of macrophages infected and number of amastigotes per 100 macrophages was enumerated.
(§5) PEM cells were infected with late-log promastigotes (L. amazonensis LV78, L. braziliensis UA847, L. donovani HU3, L. donovani 39) for 24 hr at 37° C. Infected macrophages were then treated with various antileishmanials and incubated for 3 days at 37° C. After 3 days, the cover slips were stained with Giemsa. The number of amastigotes per 100 macrophages were determined and used to calculate IC50 values.

The test system of data set [3] is L. amazonensis and L. donovani HU3 promastigotes and amastigotes. Briefly: Anti-promastigote and anti-amastigote activity of FM09, FM01 and FM05 derivatives. To be noted: stage and strain not specified; read-out: IC50, anti-promastigote and anti-amastigote activity (Table 3C). It counts as cell-based, Leishmania. As to the method: Derivatives of FM09, FM01 and FM05 were synthesized and their anti-promastigote and anti-amastigote activity were determined (Table 3C). Many amine-containing flavonoid monomers have IC50 less than 5 μM, including FM09a, FM09b, FM09c, FM09e, FM09h, FM09i, FM09k, FM09l, FM01b and FM05b.

The nature of data set [4]: Cytotoxicity, L929 fibroblasts. To be noted: mouse. Type of data set: cell-based, mouse. As to the method:
as §3

Data set [5] relates to L. amazonensis LV78 amastigotes. The data set is described as follows: Anti-amastigote activity in infected PEM, L. amazonensis LV78. It counts as cell-based. To be noted: for IC50: Leishmania amazonensis, 72 h, infected PEM, 3 days, Giemsa. The procedure:
as §4, §5

For data set [6], the system named is L. donovani HU3 promastigotes. The data set is described as follows: Anti-promastigote activity (MTS assay), L. donovani HU3. To be noted: Leishmania donovani, 72 hours. Type of data set: cell-based. The procedure: as §1, §2, §3
(Formazan colour is commonly taken as a measure of viable cells.)

For data set [7], the system named is L. braziliensis UA847 amastigotes. Briefly: Anti-amastigote activity in infected PEM, L. braziliensis UA847. Type of data set: cell-based. To be noted: Leishmania braziliensis, 72 h, 3 days, Giemsa, read-out: Anti-amastigote activity IC50, L. baziliensis UA847. The procedure:
as §4, §5

For data set [8], the system named is L. donovani Ld39 promastigotes. The data set is described as follows: Anti-promastigote activity (MTS assay), L. donovani Ld39. To be noted: Leishmania donovani, 72 hours. Type of data set: cell-based. The procedure: as §1, §2, §3
Data set [9] concerns L. donovani Ld39 amastigotes (SSG-resistant). Briefly: Anti-amastigote activity in infected PEM, L. donovani Ld39. It counts as cell-based. To be noted: for IC50: Leishmania donovani, 72 h, infected PEM, 3 days, Giemsa, SSG-resistant. As to the method:
as §4, §5

Data set [10] relates to L. major FV1 promastigotes. The data set is described as follows: Anti-promastigote activity (MTS assay), L. major FV1. Type of data set: cell-based. To be noted: Leishmania major, 72 hours. The procedure: as §1, §2, §3
In data set [11] the test system is amastigotes (L. amazonensis LV78, L. braziliensis UA847, L. donovani HU3, L. donovani 39). Briefly: Anti-amastigote activity, strain not given. To be noted: strain not specified; visceral and cutaneous Leishmania; read-out: IC50 against amastigotes. It counts as cell-based. The procedure: as §4, §5
The test system of data set [12] is promastigotes (L. amazonensis LV78, L major FV1, L. donovani HU3, L. donovani 39). The data set is described as follows: Anti-promastigote activity, strain not given. Type of data set: cell-based. To be noted: Leishmania amazonensis; strain not specified; read-out: IC50 against promastigotes. The procedure: as §2, §3
The nature of data set [13]: Cytotoxicity, peritoneal elicited macrophages (PEM). Type of data set: cell-based, mouse. To be noted: mouse, Cytotoxicity IC50, PEM. The procedure: as §4, §3

The IC50 is the concentration that inhibits the measured activity by half. As to `COc1ccnc(CN2CCN(CCOc3ccc(-c4cc(=O)c5ccccc5o4)cc3)CC2)c1OC` [FM01b, 2-(4-(2-(4-((3,4-dimethoxypyridin-2-yl)methyl)piperazin-1-yl)ethoxy)phenyl)-4H-chromen-4-one], the IC50 in data set [1] was 3.99 ± 0.99 µM; in data set [2], 3.5 ± 1.01 µM; in [3], < 5 µM; in data set [4], 95.8 ± 4.25 µM; in data set [5], 2.42 ± 0.69 µM; in data set [6] it was 6.15 ± 1.47 µM.

For the compound `O=C(NCCOCCOc1ccc(-c2cc(=O)c3ccccc3o2)cc1)c1ccncc1` [FM03, N-(2-(2-(4-(4-oxo-4H-chromen-2-yl)phenoxy)ethoxy)ethyl)isonicotinamide], the IC50 in data set [1] is > 100 µM; in data set [2], > 9 µM; in data set [4] it was > 100 µM; in [7] it was > 10 µM; in data set [8], > 100 µM; in data set [9] it was > 10 µM. The IC50 in data set [5] was > 10 µM; in data set [10] it was > 100 µM; in data set [6] it was 66.2 ± 11 µM.

On to `O=c1cc(-c2ccc(OCCOCCNCc3ccccc3)cc2)oc2ccccc12` [FM04, 2-(4-(2-(2-(benzylamino)ethoxy)ethoxy)phenyl)-4H-chromen-4-one], for which the IC50 is < 5 µM in data set [11]; 2.8 ± 0.8 µM in data set [1]; > 5 µM in data set [2]; > 33 µM in data set [4]; < 5 µM in data set [12]; 2.6 ± 0.5 µM in data set [8]. Moreover, the IC50 in [9] was determined as 6.8 µM; in data set [5], 3.7 ± 1.7 µM; in data set [13], 20.3 µM; in [10], 3.8 ± 0.7 µM; in [6], 2.4 ± 0.5 µM.

Turning to `CS(=O)(=O)NCCOCCOc1ccc(-c2cc(=O)c3ccccc3o2)cc1` [FM07, N-(2-(2-(4-(4-oxo-4H-chromen-2-yl)phenoxy)ethoxy)ethyl)methanesulfonamide], the IC50 is > 100 µM in data set [1]; 26 ± 4.1 µM in data set [4]; > 10 µM in data set [7]; 21.4 ± 2.6 µM in [8]; > 10 µM in data set [9]; > 10 µM in data set [5]. Besides, the results for the half-maximal inhibitory concentration (IC50) in [10] and in [6] were > 100 µM and 38.8 ± 6.9 µM, respectively.

For `COc1ccnc(CN(CCOCCOc2ccc(-c3cc(=O)c4ccccc4o3)cc2)Cc2nccc(OC)c2OC)c1OC` [FM09a, 2-(4-(2-(2-(bis((3,4-dimethoxypyridin-2-yl)methyl)amino)ethoxy)ethoxy)phenyl)-4H-chromen-4-one], the IC50 in data set [1] is 0.32 ± 0.05 µM; in data set [3] it was < 5 µM; in data set [5], 0.56 ± 0.21 µM; in [13], 10.4 ± 0.64 µM; in [6], 0.47 ± 0.07 µM.

Take `O=c1cc(-c2ccc(OCCOCCN(Cc3cccnc3)Cc3cccnc3)cc2)oc2ccccc12` [FM09b, 2-(4-(2-(2-(bis(pyridin-3-ylmethyl)amino)ethoxy)ethoxy)phenyl)-4H-chromen-4-one]: in [3], the IC50 was < 5 µM.

On to `O=c1cc(-c2ccc(OCCOCCN(Cc3ncccc3F)Cc3ncccc3F)cc2)oc2ccccc12` [FM09c, 2-(4-(2-(2-(bis((3-fluoropyridin-2-yl)methyl)amino)ethoxy)ethoxy)phenyl)-4H-chromen-4-one], for which the IC50 in data set [1] is 3.19 ± 0.66 µM; in data set [2], 3.1 µM; in data set [3], < 5 µM; in [5], 1.95 ± 0.78 µM; in data set [13] it was 35.4 ± 1.05 µM; in data set [6], 5.09 ± 1.13 µM.

As for `Cc1cccc(CN(CCOCCOc2ccc(-c3cc(=O)c4ccccc4o3)cc2)Cc2cccc(C)n2)n1` [FM09e, 2-(4-(2-(2-(bis((6-methylpyridin-2-yl)methyl)amino)ethoxy)ethoxy)phenyl)-4H-chromen-4-one], the IC50 in data set [1] was 7.41 ± 1.76 µM; in data set [2] it was 3.5 ± 0.48 µM; in data set [3], < 5 µM; in data set [4], 18.8 ± 0.95 µM; in [5] it was 2.4 ± 0.37 µM; in [6], 4.9 ± 0.78 µM.

With `COc1c(C)cnc(CN(CCOCCOc2ccc(-c3cc(=O)c4ccccc4o3)cc2)Cc2ncc(C)c(OC)c2C)c1C` [FM09i, 2-(4-(2-(2-(bis((4-methoxy-3,5-dimethylpyridin-2-yl)methyl)amino)ethoxy)ethoxy)phenyl)-4H-chromen-4-one], the IC50 was 0.08 ± 0.01 µM in [1]; 0.3 ± 0.05 µM in data set [2]; < 5 µM in data set [3]; 2.28 ± 0.83 µM in data set [4]; 0.27 ± 0.02 µM in data set [5]; 4.5 µM in data set [13]. Further, the 50% inhibitory concentration (IC50) in data set [6] came out at 0.18 ± 0.07 µM.

Turning to `COCCCOc1ccnc(CN(CCOCCOc2ccc(-c3cc(=O)c4ccccc4o3)cc2)Cc2nccc(OCCCOC)c2C)c1C` [FM09k, 2-(4-(2-(2-(bis((4-(3-methoxypropoxy)-3-methylpyridin-2-yl)methyl)amino)ethoxy)ethoxy)phenyl)-4H-chromen-4-one], the IC50 in data set [1] is 0.16 ± 0.05 µM; in data set [2], 0.3 ± 0.04 µM; in data set [3], < 5 µM; in data set [4], 4.7 ± 0.71 µM; in data set [5], 0.32 ± 0.02 µM; in [13], 5.3 µM. In addition, the IC50 in [6] was determined as 1.06 ± 0.1 µM.

As for `O=c1cc(-c2ccc(OCCOCCN(Cc3ccc4ccccc4n3)Cc3ccc4ccccc4n3)cc2)oc2ccccc12` [FM09l, 2-(4-(2-(2-(bis(quinolin-2-ylmethyl)amino)ethoxy)ethoxy)phenyl)-4H-chromen-4-one], the IC50 is 4.44 ± 1.24 µM in data set [1]; 4.5 ± 2.38 µM in [2]; < 5 µM in data set [3]; > 100 µM in data set [4]; 3.03 ± 0.41 µM in [5]; 67.1 µM in [13]. This compound also registered an IC50 in data set [6] of 4.74 ± 0.56 µM.

`CCCCCCCCCCCCCCCCOP(=O)([O-])OCC[N+](C)(C)C` [Miltefosine, reference compound]: the IC50 in [1] worked out at 32.7 ± 26.9 µM; in data set [7] it was 13 ± 1.3 µM; in data set [8], 17.3 ± 2.1 µM; in data set [9], 16 ± 6.4 µM; in data set [5] it was 32.7 ± 26.9 µM; in data set [13] it was 75.3 ± 9.4 µM. The IC50 was 9.7 ± 1.2 µM in data set [10] and 5.1 ± 1.4 µM in data set [6]. In data set [9] (IC50 RAW264.7 over IC50 L. donovani Ld39 amastigotes), the “Selective index (a)/(c)” value is listed as 1.3. For the same compound, the “Selective index (a)/(b)” value in [5] (IC50 RAW264.7 over IC50 L. amazonensis LV78 amastigotes) was 0.6.
